Where a name gives a salt, the structure may show the parent alone.
Columns and labels:
adjuvant arthritis = assay: Adjuvant arthritis test (hind paw swelling); assay type: in vivo, rats (SD strain, male); conditions: 5 mg/kg subcutaneous, nine times before and after injection of adjuvant; left hind paw volume; * P<0.05 vs control
Protocol: The adjuvant arthritis induced in rats by injection of a tubercle bacillus adjuvant is frequently used as an experimental model for rheumatoid arthritis in man.
Although the mechanism by which this phenomenon occurs is not completely elucidated, cellular immunity is known to play an important role. Employing this well-known adjuvant arthritis test, the same compounds of the present invention were further examined for immunomodulatory activity.
[Adjuvant arthritis test]
An adjuvant was prepared by suspending 0.4 mg of killed and dried cells of the human type tubercle bacillus (Mycobacterium tuberclosis) in 0.1 ml of liquid paraffin, and inoculated intradermally into the right hind paw of 8-weeks-old male rats of the SD strain. Each of the two compounds of the present invention was subcutaneously administered nine times before and after injection of the adjuvant. These compounds were dissolved or suspended in physiological saline containing 0.2% carboxymethyl cellulose and administered in an amount of 5 mg per kg of body weight. The volume of the left hind paw of each animal was daily measured from the day of inoculation of the adjuvant to the end of the test, and the calculated percent inhibition of swelling is shown in Table 2. For purposes of comparison, the results of an experiment with Levamisole hydrochloride are also given. The test results thus obtained were subjected to statistical analysis using the F.t test. The values marked with an asterisk (*) indicate that, when they were compared with the value of a control group treated solely with physiological saline containing 0.2% carboxymethyl cellulose, the differences were significant at P<0.05.

delayed hypersensitivity = assay: Augmentation test of delayed hypersensitivity (picryl chloride, mouse ear thickness); assay type: in vivo, mice (ICR strain, male); conditions: 50 mg/kg oral, simultaneously with sensitization; 24 hours after challenge; average of 16 measurements of 8 animals; * P<0.05 vs control
Source text: These facts are more fully explained with reference to the following evaluation tests. A variety of experimental systems are being commonly used to test immunomodulatory activity in animals. Of such tests, the most typical one is an augmentation test of delayed hypersensitivity as shown below. […] L., and Ptak, W. "Contact and delayed hypersensitivity in the mouse I. Active sensitization and passive transfer," Immunology, 15, 405-416(1968)). In the following Evaluation Test 1, this experimental system was used to carry out an augmentation test of delayed hypersensitivity. [Augmentation test of delayed hypersensitivity] Male mice of the ICR strain, weighing approximately 30 g, were used in groups of eight. These animals were sensitized by shaving the hair on the abdomen and applying thereto a 3% solution of picryl chloride in a 4:1 mixture of olive oil and acetone. Simultaneously with this sensitization, each of two compounds of the present invention was dissolved or suspended in physiological saline containing 0.2% carboxymethyl cellulose and administered orally to the animals in a dose of 50 mg per kg of body weight. A control group was treated solely with physiological saline containing 0.2% carboxymethyl cellulose. Seven days after sensitization, delayed hypersensitivity was challenged by wrapping the tips of a forceps with pieces of felt, impregnating the felt with olive oil containing 1% picryl chloride, and pinching both ears of each animal. The thicknesses of the ears were measured before and 24 hours after the challenge, and the calculated percent increase of ear thickness (the average of 16 measurements made of the ears of 8 animals) is shown in Table 1. For purposes of comparison, the results of an experiment with Lavamisole hydrochloride are also given. The test results thus obtained were subjected to statistical analysis using the F.t test. The values marked with an asterisk (*) indicate that, when they were compared with the value of the control group, the differences were significant at P<0.05.

[1] = Test for acute oral toxicity; parameters: species or system mice (ddY strain; conditions: mouse, in vivo, 5 male ddY mice per group, observed for 7 days, estimated
Protocol: The toxicity of the active ingredients of some typical pharmaceutical composition of the present invention was examined in the following Evaluation Test 3.
[Test for acute oral toxicity]
Each of the compounds used in Evaluation Tests 1 and 2 was dissolved or suspended in physiological saline and administered orally to a group of 5 male mice of the ddY strain. The LD50 value of the compound was estimated by observing these animals for 7 days after administration.

SMILES	Percent inhibition of swelling as compared with control group (average of 16-20 days) (adjuvant arthritis) [%]	Percent increase of ear thickness (delayed hypersensitivity) [%]	LD50 at 168 h [1] [mg/kg]
Cc1cn(C(=O)C(=O)n2cc(C)c(=O)[nH]c2=O)c(=O)[nH]c1=O [drawing 7]	29.9		
O=C(C(=O)n1ccc(=O)[nH]c1=O)n1ccc(=O)[nH]c1=O [drawing 4]		33.9	
O=C(C(=O)n1ccc(=O)[nH]c1=O)n1ccc(=O)[nH]c1=O [drawing 6]	41.4		
c1ccc([C@H]2CN3CCSC3=N2)cc1 [Levamisole hydrochloride, reference compound]	19.8	31.2	200 to 300
Cc1cn(C(=O)C(=O)n2cc(C)c(=O)[nH]c2=O)c(=O)[nH]c1=O [drawing 5]		28.6	
